For orientation: IC50 means the concentration needed to halve the response being measured.

For this test, the target named is T1, Recombinant human EP300 containing the bromodomain (EP300-BD (1040-1161)) (Homo sapiens, UniProt Q09472).
T1 construct: Recombinant human EP300 bromodomain (EP300-BD (1040-1161)); made in house; host or cells: E. coli BL21-CodonPlus (DE3), modified pET vector
T1 sequence (Q09472 1040-1161): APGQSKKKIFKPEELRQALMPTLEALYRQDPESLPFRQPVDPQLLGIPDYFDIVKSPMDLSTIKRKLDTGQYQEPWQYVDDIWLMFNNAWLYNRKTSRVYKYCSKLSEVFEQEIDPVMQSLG
As to the kind of experiment: EP300 Alphascreen binding assay. A digest of the protocol: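 Displacement of a biotinylated acetyl-K56 histone H3 peptide from the N-His bromodomain construct (1040-1161) measured by AlphaScreen proximity, beads at 7.5 μg/ml final, read 60 min after addition. Protein, peptide and compound first incubated 1 h at room temperature, pH 7.5 HEPES buffer; IC50 by four-parameter logistic fit.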
In general terms: In Alpha technology, singlet oxygen from a donor bead excites a nearby acceptor bead.
With `Cc1noc(C)c1-c1cnc2c(c1)c(-c1ccc(C(=O)O)cc1OC(F)(F)F)cn2CC1CC(F)(F)C1` [P-0157, 4-(1-((3,3-difluorocyclobutyl)methyl)-5-(3,5-dimethylisoxazol-4-yl)-1H-pyrrolo[2,3-b]pyridin-3-yl)-3-(trifluoromethoxy)benzoic acid], the IC50 fell in the range of 0.1 to 1000 nM.
`Cc1noc(C)c1-c1cnc2c(c1)c(-c1ccc(C(=O)O)cc1OC(F)(F)F)cn2-c1ccccn1` [P-0158, 4-(5-(3,5-dimethylisoxazol-4-yl)-1-(pyridin-2-yl)-1H-pyrrolo[2,3-b]pyridin-3-yl)-3-(trifluoromethoxy)benzoic acid]: the IC50 is 0.1 to 1000 nM.
With `Cc1noc(C)c1-c1cnc2c(Cc3ccccn3)cn(-c3ccc(C(=O)O)cc3OC(F)(F)F)c2c1` [P-0159, 4-(6-(3,5-dimethylisoxazol-4-yl)-3-(pyridin-2-ylmethyl)-1H-pyrrolo[3,2-b]pyridin-1-yl)-3-(trifluoromethoxy)benzoic acid] the figure was 0.1 to 1000 nM.
With `Cc1noc(C)c1-c1cnc2c(-c3cnn(C)c3)c(C(F)(F)F)n([C@@H](C)c3ccccn3)c2c1` [P-0160, (S)-3,5-dimethyl-4-(3-(1-methyl-1H-pyrazol-4-yl)-1-(1-(pyridin-2-yl)ethyl)-2-(trifluoromethyl)-1H-pyrrolo[3,2-b]pyridin-6-yl)isoxazole] the figure was 0.1 to 1000 nM; with `Cc1noc(C)c1-c1cnc2c(-c3cccc(CC(=O)O)c3)c(C(F)(F)F)n([C@@H](C)c3ccccn3)c2c1` [P-0161, (S)-2-(3-(6-(3,5-dimethylisoxazol-4-yl)-1-(1-(pyridin-2-yl)ethyl)-2-(trifluoromethyl)-1H-pyrrolo[3,2-b]pyridin-3-yl)phenyl)acetic acid], 0.1 to 1000 nM; with `Cc1noc(C)c1-c1cnc2c(-c3cccc(C(=O)O)c3)c(C(F)(F)F)n([C@@H](C)c3ccccn3)c2c1` [P-0162, (S)-3-(6-(3,5-dimethylisoxazol-4-yl)-1-(1-(pyridin-2-yl)ethyl)-2-(trifluoromethyl)-1H-pyrrolo[3,2-b]pyridin-3-yl)benzoic acid], 0.1 to 1000 nM.
The figure for `Cc1noc(C)c1-c1cnc2c(C(O)(C3CC3)C3CC3)cn(-c3ccc(C(=O)O)cc3OC(F)(F)F)c2c1` [P-0163, 4-(3-(dicyclopropyl(hydroxy)methyl)-6-(3,5-dimethylisoxazol-4-yl)-1H-pyrrolo[3,2-b]pyridin-1-yl)-3-(trifluoromethoxy)benzoic acid] is 0.1 to 1000 nM; for `Cc1noc(C)c1-c1cnc2c(-c3cc(C(=O)O)ccc3Cl)cn(C(C)(c3ccccn3)c3ccccn3)c2c1` [P-0164, 4-chloro-3-(1-(1,1-di(pyridin-2-yl)ethyl)-6-(3,5-dimethylisoxazol-4-yl)-1H-pyrrolo[3,2-b]pyridin-3-yl)benzoic acid] it is 0.1 to 1000 nM.
For `CCOc1cc(C(=O)O)cc(OCC)c1-n1cc(C(O)(C2CC2)C2CC2)c2ncc(-c3c(C)noc3C)cc21` [P-0165, 4-(3-(dicyclopropyl(hydroxy)methyl)-6-(3,5-dimethylisoxazol-4-yl)-1H-pyrrolo[3,2-b]pyridin-1-yl)-3,5-diethoxybenzoic acid], the IC50 lay in the range of 0.1 to 1000 nM.
The figure for `Cc1noc(C)c1-c1cnc2c(-c3cc(C(=O)O)ccc3C#N)cn(C(C)(c3ccccn3)c3ccccn3)c2c1` [P-0166, 4-cyano-3-(1-(1,1-di(pyridin-2-yl)ethyl)-6-(3,5-dimethylisoxazol-4-yl)-1H-pyrrolo[3,2-b]pyridin-3-yl)benzoic acid] is 0.1 to 1000 nM.
The figure for `C#Cc1ccccc1-c1cn(C(C)(c2ccccn2)c2ccccn2)c2cc(-c3c(C)noc3C)cnc12` [P-0167, 4-(1-(1,1-di(pyridin-2-yl)ethyl)-3-(2-ethynylphenyl)-1H-pyrrolo[3,2-b]pyridin-6-yl)-3,5-dimethylisoxazole] is 0.1 to 1000 nM.
Turning to `CCOc1cc(C(=O)O)cc(OCC)c1-n1cc(-c2ccccc2)c2ncc(-c3c(C)noc3C)cc21` [P-0168, 4-(6-(3,5-dimethylisoxazol-4-yl)-3-phenyl-1H-pyrrolo[3,2-b]pyridin-1-yl)-3,5-diethoxybenzoic acid], the IC50 lay within 0.1 to 1000 nM.
Turning to `Cc1noc(C)c1-c1cnc2c(-c3ccccc3C#N)cn(C(C)(c3ccccn3)c3ccccn3)c2c1` [P-0169, 2-(1-(1,1-di(pyridin-2-yl)ethyl)-6-(3,5-dimethylisoxazol-4-yl)-1H-pyrrolo[3,2-b]pyridin-3-yl)benzonitrile], the IC50 lay within 0.1 to 1000 nM.

The values are drawn from patent publication US11446287B2, “Compounds and methods for EP300 or CBP modulation and indications therefor” (Opna Immuno-Oncology SA, priority 2019, dated 2022).
